Test results published in patent US7067535B2, “5-Phenylbenzylamine compounds, process for their production and intermediates for their synthesis” (Tanabe Seiyaku Co., Ltd., priority 2000, dated 2006).
Where a name gives a salt, the structure may show the parent alone.

| SMILES | melting point |
| --- | --- |
| COc1ccc(-c2ccc(F)cc2)cc1[C@@H](C)N[C@H]1CCCN[C@H]1c1ccccc1 (as salt: hydrochloride) [Example 101, [2-methoxy-5-(4-fluorophenyl)-(R)-α-methylbenzyl][(2S,3S)-2-phenylpiperidin-3-yl]amine dihydrochloride] | 200 to 204 °C (dec.) |
| COc1ccc(-c2ccc(F)cc2)cc1[C@H](C)N[C@H]1CCCN[C@H]1c1ccccc1 (as salt: hydrochloride) [Example 102, [2-methoxy-5-(4-fluorophenyl)-(S)-α-methylbenzyl][(2S,3S)-2-phenylpiperidin-3-yl]amine dihydrochloride] | 274 to 278 °C (dec.) |
| COc1ccc(-c2ccccc2C(F)(F)F)cc1CN[C@H]1CCCN[C@H]1c1ccccc1.Cl.Cl (racemic) | 260 to 262 °C |
| COc1ccc(-c2ccc(Cl)cc2)cc1CN[C@H]1CCCN[C@H]1c1ccccc1 [Example 7, [2-methoxy-5-(4-chlorophenyl)benzyl][(2S,3S)-2-phenylpiperidin-3-yl]amine] | 272 to 274 °C (dec.) |
| COc1ccc(-c2ccc(C#N)cc2)cc1CN[C@H]1CCCN[C@H]1c1ccccc1 [Example 16, [2-methoxy-5-(4-cyanophenyl)benzyl][(2S,3S)-2-phenylpiperidin-3-yl]amine] | 277 to 278 °C (dec.) |
| COc1ccc(-c2ccc(C#N)cc2F)cc1CN[C@H]1CCCN[C@H]1c1ccccc1 [Example 51, [2-methoxy-5-(2-fluoro-4-cyanophenyl)benzyl][(2S,3S)2-phenylpiperidin-3-yl]amine] | 280 to 281 °C (dec.) |
| COc1ccc(-c2ccc(C#N)cc2F)cc1CN[C@H]1CC[C@@H](C)N[C@H]1c1ccccc1 [Example 112, [2-methoxy-5-(2-fluoro-4-cyanophenyl)benzyl]-[(2S,3S,6R)-6-methyl-2-phenylpiperidin-3-yl]amine] | 301 to 302 °C (dec.) |
| COc1ccc(-c2ccc(C#N)cc2)cc1CN[C@H]1CC[C@@H](C)N[C@H]1c1ccccc1 [Example 113, [2-methoxy-5-(4-cyanophenyl)benzyl][(2S,3S,6R)6-methyl-2-phenylpiperidin-3-yl]amine] | 298 to 300 °C |

Continued, values first:

| melting point | SMILES |
| --- | --- |
| 277 to 279 °C (dec.) | COc1ccc(-c2ccc(F)cc2)cc1CN[C@H]1CCCN[C@H]1c1ccccc1.Cl.Cl |
| 208 to 210 °C (dec.) | COc1ccc(-c2ccc(F)cc2)cc1CN[C@H]1CCCN(Cc2nnc[nH]2)[C@H]1c1ccccc1 (as salt: hydrochloride) [Example 103, (2S,3S)-1-(1,2,4-triazol-3-ylmethyl)-2-phenyl-3-[[2-methoxy-5-(4-fluorophenyl)benzyl]amino]piperidine trihydrochloride] |
| 198 to 200 °C (dec.) | COc1ccc(-c2ccc(F)cc2)cc1CN[C@H]1CCCN(Cc2n[nH]c(=O)[nH]2)[C@H]1c1ccccc1 (as salt: hydrochloride) [Example 104, (2S,3S)-1-[5(4H)-oxo-1,2,4-triazol-3-yl]methyl-2-phenyl-3-[[2-methoxy-5-(4-fluorophenyl)benzyl]amino]piperidine dihydrochloride] |
| 180 to 182 °C (dec.) | COc1ccc(-c2ccc(F)cc2)cc1CN[C@H]1CCCN(Cc2n[nH]c(=S)[nH]2)[C@H]1c1ccccc1 (as salt: hydrochloride) [Example 105, (2S,3S)-1-[5(4H)-thioxo-1,2,4-triazol-3-yl]methyl-2-phenyl-3-[[2-methoxy-5-(4-fluorophenyl)benzyl]amino]piperidinedihydrochloride] |
| 212 to 216 °C (dec.) | COc1ccc(-c2ccc(F)cc2)cc1CN[C@H]1CCCN(Cc2n[nH]c(=O)o2)[C@H]1c1ccccc1 (as salt: hydrochloride) [Example 106, (2S,3S)-1-[5(4H)-oxo-1,3,4-oxadiazol-2-yl]methyl-2-phenyl-3-[[2-methoxy-5-(4-fluorophenyl)benzyl]amino]piperidine-dihydrochloride] |
